Assay results from publication PMC8805605, “Discovery of Dimeric Arylsulfonamides as Potent ADAM8 Inhibitors” (ACS Medicinal Chemistry Letters, 2021).

target: T1, MMP-2 (Homo sapiens, UniProt P08253); assay: MMP-2 fluorometric inhibition assay; type: biochemical; details: mean of three independent experiments in duplicate, read-out: In vitro inhibitory activity IC50 on MMP-2
T1 construct: purchased Calbiochem (Merck-Millipore)
T1 sequence (P08253 110-660): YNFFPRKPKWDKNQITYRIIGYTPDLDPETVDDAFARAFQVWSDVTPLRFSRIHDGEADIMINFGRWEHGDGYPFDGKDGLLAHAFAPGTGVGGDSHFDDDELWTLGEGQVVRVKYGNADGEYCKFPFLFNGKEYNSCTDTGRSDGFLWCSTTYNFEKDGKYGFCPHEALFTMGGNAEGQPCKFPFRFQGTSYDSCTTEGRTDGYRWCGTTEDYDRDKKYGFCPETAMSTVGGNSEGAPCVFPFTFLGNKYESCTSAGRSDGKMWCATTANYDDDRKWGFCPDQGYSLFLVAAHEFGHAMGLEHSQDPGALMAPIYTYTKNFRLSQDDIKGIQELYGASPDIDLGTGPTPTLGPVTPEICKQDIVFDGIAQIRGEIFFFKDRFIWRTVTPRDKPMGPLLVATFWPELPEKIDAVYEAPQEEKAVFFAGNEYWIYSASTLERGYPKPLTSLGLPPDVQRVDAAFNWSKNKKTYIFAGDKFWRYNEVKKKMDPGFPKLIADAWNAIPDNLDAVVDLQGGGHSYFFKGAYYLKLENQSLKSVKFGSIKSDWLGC
Protocol: The newly synthesized bivalent derivatives 1–3 were then tested in vitro on human recombinant ADAM8 in comparison with JG26 by a fluorometric assay. The inhibitory activity against a panel of MMPs and ADAM10/17 was determined as well to assess their selectivity profile. […]
VI. Biological Activity on Isolated Enzymes
MMP and ADAM10 inhibition assays.
Recombinant human MMP-14 catalytic domain was a kind gift of Prof. Gillian Murphy (Department of […]
Oncology, University of Cambridge, UK). Pro-MMP-1, pro-MMP-2, and pro-MMP-9, were purchased […]
from Calbiochem (Merck-Millipore). Pro-MMP-12 and ADAM10 were purchased from R&D Systems.
Proenzymes were activated immediately prior to use with p-aminophenylmercuric acetate (APMA 2 […]
mM for 1 h at 37°C for MMP-2 and MMP-1, 1 mM for 1 h at 37°C for MMP-9). Pro-MMP-12 was […]
auto activated by incubating in the fluorometric assay buffer (FAB: Tris 50 mM, pH = 7.5, NaCl 150 […]
mM, CaCl2 10 mM, Brij 35 0.05% and DMSO 1%) for 30 h at 37°C. For assay measurements, each […]
inhibitor stock solution (DMSO, 10 mM) was further diluted in FAB at seven different concentrations.
Activated enzyme (final concentration 0.56 nM for MMP-2, 1.3 nM for MMP-9, 1.0 nM for MMP- […]
14cd, 2.0 nM for MMP-1, 2.3 nM for MMP-12 and 20 nM for ADAM10) and inhibitor solutions were […]
incubated in the assay buffer for 3 h at 25 °C. ADAM10 was incubated for 1 h at 37°C in a different […]
buffer at pH 9 (Tris 25 mM, ZnCl2 25 µM, Brij-35 0.005 %). After the addition of 200 µM solution of […]
the fluorogenic substrate Mca-Lys-Pro-Leu-Gly-Leu-Dap(Dnp)-Ala-Arg-NH2 (Bachem) for all the […]
enzymes in DMSO (final concentration 2 µM for all enzymes, 10 µM for ADAM10), the hydrolysis […]
was monitored every 10 sec. for 15 min. recording the increase in fluorescence (λ ex = 325 nm, λ em = […]
400 nm) using a Molecular Devices SpectraMax Gemini XPS plate reader. The assays were performed […]
in triplicate in a total volume of 200 μL per well in 96-well microtitre plates (Corning, black, NBS).
Control wells lack inhibitor. The MMP inhibition activity was expressed in relative fluorescent units […]
(RFU). Percent of inhibition was calculated from control reactions without the inhibitor. IC50 was determined using the formula: v i/v o = 1/(1 + [I]/ IC50), where v i is the initial velocity of substrate cleavage in the presence of the inhibitor at concentration [I] and v o is the initial velocity in the absence of the inhibitor. Results were analyzed using SoftMax Pro software (version 5.4.3, Molecular Devices, Sunnyvale, CA) and Prism Software version 5.0 (GraphPad Software, Inc., La Jolla, CA, USA).
ADAM8 and ADAM17 inhibition assays […]

Going from `O=C(CCCNC(=O)c1cccc(C(=O)NCCCC(=O)NCCC[C@@H](NS(=O)(=O)c2ccc(OCc3cc(Br)cc(Br)c3)cc2)C(=O)NO)c1)NCCC[C@@H](NS(=O)(=O)c1ccc(OCc2cc(Br)cc(Br)c2)cc1)C(=O)NO` [Compound 1] to `O=C(NCCC[C@@H](NS(=O)(=O)c1ccc(OCc2cc(Br)cc(Br)c2)cc1)C(=O)NO)c1cccc(C(=O)NCCC[C@@H](NS(=O)(=O)c2ccc(OCc3cc(Br)cc(Br)c3)cc2)C(=O)NO)c1` [Compound 2], the IC50 falls from 4.66 µM to 3 µM (1.6-fold).

Going from `O=C(NCCC[C@@H](NS(=O)(=O)c1ccc(OCc2cc(Br)cc(Br)c2)cc1)C(=O)NO)NCCC[C@@H](NS(=O)(=O)c1ccc(OCc2cc(Br)cc(Br)c2)cc1)C(=O)NO` [Compound 3] to `NC(=O)NCCC[C@@H](NS(=O)(=O)c1ccc(OCc2cc(Br)cc(Br)c2)cc1)C(=O)NO` [JG26, reference compound], the IC50 falls from 0.9 µM to 0.24 µM (3.8-fold).
